Source: the supplement of paper PMC4862054

Key:
Details in all cases: incubation time: 72 h
BT-474 [1] = experiment: normalised response (% of control), CellTox Green; higher = less cell death (100 = DMSO, 0 = benzethonium chloride kill control)
How it was run: (§1)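 After 72 h with compound in 384-well plates, breast cancer cell lines seeded as 20 µl suspension were read for CellTox Green fluorescence at 485/520 nm. CellTiter-Glo luminescence was then read after 10 min at room temperature. Compound was present at 5 concentrations in 10-fold steps over a 10,000-fold range set per compound, and plates were normalised to 0.1 % DMSO (100) and a positive kill control (0). Values are normalised signals, each at a single concentration.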

BT-549 [2] = experiment: as above
How it was run: as §1

CAL-120 = experiment: as above
How it was run: as §1

CAL-51 = experiment: as above
How it was run: as §1

CAL-85-1 [3] = experiment: as above
How it was run: as §1

DU-4475 [4] = experiment: as above
How it was run: as §1

HCC1143 [5] = experiment: as above
How it was run: as §1

HCC1599 [6] = experiment: as above
How it was run: as §1

HCC1937 [7] = experiment: as above
How it was run: as §1

HDQ-P1 [8] = experiment: as above
How it was run: as §1

Hs578T = experiment: as above
How it was run: as §1

MDA-MB-436 [9] = experiment: as above
How it was run: as §1

MDA-MB-453 [10] = experiment: as above
How it was run: as §1

MFM-223 = experiment: as above
How it was run: as §1

BT-474 [11] = experiment: drug sensitivity score (DSS), CellTiter-Glo (DSS (AUC-based score)); higher = stronger drug effect (viability inhibition or cytotoxicity); extreme values may be limits of the assay
How it was run: (§2)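 Breast cancer cell lines were seeded in 20 µl suspension into 384-well plates already holding compound and incubated for 72 h. Each compound was tested at 5 concentrations in 10-fold steps across its own 10,000-fold range. Plates were normalised to 0.1 % DMSO and a positive kill control after CellTox Green and then CellTiter-Glo readings. The area under the fitted dose-response curve served as the basis for the drug sensitivity score.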

BT-549 [12] = experiment: as above
How it was run: as §2

CAL-148 = experiment: as above
How it was run: as §2

CAL-85-1 [13] = experiment: as above
How it was run: as §2

DU-4475 [14] = experiment: as above
How it was run: as §2

HCC1143 [15] = experiment: as above
How it was run: as §2

HCC1599 [16] = experiment: as above
How it was run: as §2

HCC1937 [17] = experiment: as above
How it was run: as §2

HDQ-P1 [18] = experiment: as above
How it was run: as §2

MCF-10A = experiment: as above
How it was run: as §2

MDA-MB-231 = experiment: as above
How it was run: as §2

MDA-MB-436 [19] = experiment: as above
How it was run: as §2

MDA-MB-453 [20] = experiment: as above
How it was run: as §2

SK-BR-3 = experiment: as above
How it was run: as §2

Q: What does the source list for `NC1(c2ccc(-c3nc4ccn5c(=O)[nH]nc5c4cc3-c3ccccc3)cc2)CCC1` [MK-2206] (1000 nM)?
A: normalised response (BT-474 [1]): 99.2%; normalised response (BT-549 [2]): 122%; normalised response (CAL-120): 97.8%; normalised response (CAL-51): 98.1%; normalised response (CAL-85-1 [3]): 69%; normalised response (DU-4475 [4]): 109%; normalised response (HCC1143 [5]): 131%; normalised response (HCC1599 [6]): 117%; normalised response (HCC1937 [7]): 108%; normalised response (HDQ-P1 [8]): 109%; normalised response (Hs578T): 82.1%; normalised response (MDA-MB-436 [9]): 112%; normalised response (MDA-MB-453 [10]): 96.7%; normalised response (MFM-223): 95.9%

Q: What does the source list for `O=C(c1cc(Cc2n[nH]c(=O)c3ccccc23)ccc1F)N1CCN(C(=O)C2CC2)CC1` [Olaparib] (10000 nM)?
A: normalised response (BT-474 [1]): 96.4%; normalised response (BT-549 [2]): 102%; normalised response (CAL-120): 94.8%; normalised response (CAL-51): 44.8%; normalised response (CAL-85-1 [3]): 105%; normalised response (DU-4475 [4]): 98.5%; normalised response (HCC1143 [5]): 94.2%; normalised response (HCC1599 [6]): 99.2%; normalised response (HCC1937 [7]): 99.8%; normalised response (Hs578T): 96.5%; normalised response (MDA-MB-436 [9]): 44%; normalised response (MDA-MB-453 [10]): 109%; normalised response (MFM-223): 102%

Q: With `COc1cc2c(N3CCN(C(=O)Nc4ccc(OC(C)C)cc4)CC3)ncnc2cc1OCCCN1CCCCC1` [Tandutinib] (1000 nM) as the molecule, how does the normalised response (BT-474 [1]) read?
A: 100%

Q: And the normalised response (BT-549 [2])?
A: 108%

Q: What about the normalised response (CAL-120) of the same molecule?
A: 96.2%

Q: And the normalised response (CAL-51)?
A: 98.5%

Q: What about the normalised response (CAL-85-1 [3]) of the same molecule?
A: 105%

Q: What about the normalised response (DU-4475 [4]) of the same molecule?
A: 98.6%

Q: What about the normalised response (HCC1143 [5]) of the same molecule?
A: 114%

Q: And the normalised response (HCC1599 [6])?
A: 100%

Q: And the normalised response (HCC1937 [7])?
A: 93.2%

Q: And the normalised response (HDQ-P1 [8])?
A: 97.1%

Q: What about the normalised response (Hs578T) of the same molecule?
A: 122%

Q: And the normalised response (MDA-MB-436 [9])?
A: 86.9%

Q: And the normalised response (MDA-MB-453 [10])?
A: 101%

Q: What about the normalised response (MFM-223) of the same molecule?
A: 89%

Q: For `C[C@@H](C(=O)O)c1ccc(-c2ccccc2)c(F)c1` [Tarenflurbil] (10000 nM), which normalised response (BT-474 [1]) is on record?
A: 88.4%

Q: What about the normalised response (BT-549 [2]) of the same molecule?
A: 101%

Q: And the normalised response (CAL-120)?
A: 91.1%

Q: And the normalised response (CAL-51)?
A: 113%

Q: What about the normalised response (CAL-85-1 [3]) of the same molecule?
A: 110%

Q: What about the normalised response (DU-4475 [4]) of the same molecule?
A: 101%

Q: What about the normalised response (HCC1143 [5]) of the same molecule?
A: 121%

Q: What about the normalised response (HCC1599 [6]) of the same molecule?
A: 102%

Q: What about the normalised response (HCC1937 [7]) of the same molecule?
A: 109%

Q: What about the normalised response (HDQ-P1 [8]) of the same molecule?
A: 110%

Q: What about the normalised response (MDA-MB-436 [9]) of the same molecule?
A: 90%

Q: And the normalised response (MDA-MB-453 [10])?
A: 103%

Q: What about the normalised response (MFM-223) of the same molecule?
A: 92.6%

Q: `CCc1c(C(=O)C(N)=O)c2c(OCC(=O)O)cccc2n1Cc1ccccc1` [Varespladib] was tested. Which drug sensitivity score (BT-474 [11]) did it give?
A: 0

Q: And the drug sensitivity score (BT-549 [12])?
A: 0

Q: And the drug sensitivity score (CAL-148)?
A: 0

Q: And the drug sensitivity score (CAL-85-1 [13])?
A: 0

Q: And the drug sensitivity score (DU-4475 [14])?
A: 0

Q: And the drug sensitivity score (HCC1143 [15])?
A: 0

Q: What about the drug sensitivity score (HCC1599 [16]) of the same molecule?
A: 0

Q: And the drug sensitivity score (HCC1937 [17])?
A: 0

Q: What about the drug sensitivity score (HDQ-P1 [18]) of the same molecule?
A: 0

Q: And the drug sensitivity score (MCF-10A)?
A: 0

Q: What about the drug sensitivity score (MDA-MB-231) of the same molecule?
A: 0

Q: What about the drug sensitivity score (MDA-MB-436 [19]) of the same molecule?
A: 0

Q: And the drug sensitivity score (MDA-MB-453 [20])?
A: 0

Q: What about the drug sensitivity score (SK-BR-3) of the same molecule?
A: 0
